Test results: patent US11872262B2, “Means and methods for treating bacterial infections” (VIB VZW, priority 2017, dated 2024)
Residues, ends and D or L forms follow the SMILES beside them.

Legend:
[1] = In vitro haemolytic activity test; assay type: cell-based; settings: human erythrocytes; read-out: LC50, concentration at which the peptide induces 50% lysis of human erythrocytes
Description: The hemolytic activities of peptides were determined by hemolysis against human erythrocytes. Pooled fresh blood was obtained and erythrocytes were collected by centrifugation 3000 rpm for 5 minutes (Anticoagulated by EDTAK) (Cristina et al. 2015). The pellet was washed three times with PBS and was diluted to a concentration of 8% in PBS. 100 μL of 8% Red blood cells solution was mixed with 100 μL of serial dilutions of peptides in PBS buffer in 96 well plates (BD Biosciences). The reaction mixtures were incubated for 1 h at 37° C. Thereupon, the plate was centrifuged for 10 minutes at 3000 rpm and 100 μL of supernatant was transferred to a sterilized 96-well plate (flat bottom). The release of hemoglobin was determined by measuring the absorbance of the supernatant at 405 nm. […] Erythrocytes in 1% Triton and Max used concentration of vehicle were used as control of 100% and 0% hemolysis, respectively.

[2] = Solubility of peptide after ultracentrifugation; assay type: physicochemical; settings: 30 min after dissolving
Description: FIG. 1: Activity, cytotoxicity and aggregation of antibacterial aggregating peptides. (A) Time-killing curve of selected peptides against E. coli strain O157 treated at MIC concentration (average and s.d. of 3 replicates). (B, C, D) Transmission electron microcopy (TEM) of cross-sections of E. coli O157 embedded in resin. B is mock treated, C is P2- and D is P105-treated E. coli O157 (2 h). […] (F) Concentration-dependent hemolysis of human erythrocytes by selected peptides (average and s.d. of 3 replicates). (G) Cytoxicity of Colpeptin1 to human HeLa cells measured by CellTiter Blue assay (average and s.d. of 3 replicates) and (H) by LDH release assay (average and s.d. of 3 replicates). […] Data are from a single experiment that was replicated 3 times (J) Histogram of the size distribution of particles calculated from the DLS data recorded of freshly dissolved colpeptin1 using a linear polymer as particle model. […] (M) Fluorescence intensity of the amyloid-specific dye pFTAA added to preparation of colpeptin1, normalised to the intensity observed with amyloid fibrils of the Alzheimer beta-peptide at the same concentration in monomeric units (average and s.d. of 3 replicates). […] (0) Aggregation kinetics of Colpeptin1 monitored by pFTAA fluorescence in the presence of 1 mM hexaphosphate (average and s.d. of 4 replicates). […]

In vivo toxicity test = test: In vivo toxicity test; set-up: species or system Swiss mice
Description: The procedures used in the assays were approved by the local Animal Ethical Committee and conform to international standards of animal welfare (Approval P067/2015 of the Ethical Committee of KU Leuven). […] Briefly, 5-6 week-old Swiss females were divided into […] (6 animals/group) and administered 30 mg/kg of Colpeptin1 (group A) or vehicle (physiological water pH 7.5) (group b) once a day for 18 days via IP injection. During the treatment period the clinical, physiological and behavioral parameters including body weight, food and water consumption, body condition score, home cage activity and locomotion were constantly monitored and recorded.
Three days after the last administration animals were anesthetized and blood was collected using a standard retro-orbital puncture from each animal. Next, the mice sacrificed and underwent complete necropsy with gross examination and organ weights. The organs (Heart, Liver, Spleen, kidney, bone marrow, Brain, Lung) were sampled and immersion fixed in 4% paraformaldehyde. Formalin-fixed tissues after dehydration were routinely processed and embedded in paraffin blocks for histopathological examination. 5 μm thick sections taken from these blocks (Thermo Scientific Microm HM355S microtome) were then stained with Hematoxylin and Eosin (Leica ST5010 Autostainer XL) and evaluated under a Leica DM 2500 light microscope by a board-certified veterinary pathologist. Hematology examination was performed using an automate high-resolution flow cytometer, Abbott Cell-Dyn 3700.

[3] = mice, 30 mg/kg, 18 consecutive days injection
[4] = mice, 18 consecutive days of injection, Mean ± SD

CC(C)C[C@H](NC(=O)CNC(=O)[C@H](CCCNC(=N)N)NC(=O)[C@@H]1CCCN1C(=O)[C@H](CCCNC(=N)N)NC(=O)[C@H](CCCNC(=N)N)NC(=O)[C@@H](NC(=O)[C@H](CC(C)C)NC(=O)[C@H](C)NC(=O)[C@H](CC(C)C)NC(=O)CNC(=O)[C@H](CC(C)C)NC(=O)CNC(=O)[C@@H](N)CCCNC(=N)N)C(C)C)C(=O)NCC(=O)N[C@@H](CC(C)C)C(=O)N[C@@H](C)C(=O)N[C@@H](CC(C)C)C(=O)N[C@H](C(=O)N[C@@H](CCCNC(=N)N)C(=O)N[C@@H](CCCNC(=N)N)C(=O)O)C(C)C [Peptide P2] (H-RGLGLALVRRPRGLGLALVRR-OH)
HC50 at 1 h [1]: 1100 µg/mL
peptide remaining in solution [2]: less than 60%
adverse effects on repeated dosing (In vivo toxicity test; 6 mice, daily injections at the maximum tolerated dose for 18 days): without any apparent adverse effects
acute adverse effects, dose escalation (In vivo toxicity test; Swiss mice, intraperitoneal administration of up to 30 mg/kg): no acute adverse effects
survey of the major organs (In vivo toxicity test; after 18 days dosing and 3 days recovery): no major morphological signs of toxicity
Organs weights: Brain (In vivo toxicity test; [3]): 0.56 ± 0.02 gr
Organs weights: Heart (In vivo toxicity test; [3]): 0.20 ± 0.02 gr
Organs weights: Kidneys (In vivo toxicity test; [3]): 0.58 ± 0.01 gr
Organs weights: Liver (In vivo toxicity test; [3]): 1.90 ± 0.11 gr
Organs weights: Spleen (In vivo toxicity test; [3]): 0.12 ± 0.01 gr
BASO, Basophil absolute count (In vivo toxicity test; [4]): 0.24 ± 0.02
EOS, Eosinophil absolute count (In vivo toxicity test; [4]): 0.14 ± 0.06
HCT, Hematocrit (In vivo toxicity test; [4]): 98.87 ± 3.7
HGB, Hemoglobin concentration (In vivo toxicity test; [4]): 17.8 ± 0.45
LYM, Lymphocyte absolute count (In vivo toxicity test; [4]): 5.32 ± 0.52
MCH, Mean Corpuscular Hemoglobin (In vivo toxicity test; [4]): 48.2 ± 0.34
MCHC, Mean Corpuscular Hemoglobin Concentration (In vivo toxicity test; [4]): 53.7 ± 0.42
MCV, Mean Corpuscular Volume (In vivo toxicity test; [4]): 273 ± 1.32
MONO, Monocyte absolute count (In vivo toxicity test; [4]): 0.15 ± 0.05
MPV, Mean Platelet Volume (In vivo toxicity test; [4]): 16.36 ± 0.2
NEU, Neutrophil absolute count (In vivo toxicity test; [4]): 0.80 ± 0.06
PCT, Plateletcrit (In vivo toxicity test; [4]): 0.88 ± 0.05
PDW, Platelet Distribution Width (In vivo toxicity test; [4]): 49.9 ± 0.43
PLT, Platelet or Thrombocyte count (In vivo toxicity test; [4]): 1595 ± 50.7
RBC, Red Blood Cell or Erythrocyte count (In vivo toxicity test; [4]): 10.9 ± 0.46
WBC, White Blood Cell or Leukocyte count (In vivo toxicity test; [4]): 6.89 ± 0.42
MTD (In vivo toxicity test; mouse, in vivo, ip, Swiss mice, intraperitoneal, read-out: safe concentration from escalation experiment): 30 mg/kg
